Values quoted from earlier work in patent US20100209419A1, “Method and formulation for treating adverse biological conditions” (priority 2008, published 2010).

Settings: at 79° F.

Q: With `CS(C)(=O)=O` [MSM, methylsulfonylmethane] as the compound, how does the water solubility read?
A: 34 % w/v
